System: ZR-75-1 tumor
Test: ZR-75-1 subQ CDX model
Assay type: in vivo
Conditions: female BALB/c nude mice, 10 mg/kg, PO, QD, FIG. 14
Description: Female BALB/c nude mice were inoculated with estrogen tablets (0.36 mg/pellet, 60 days to release) 48 hours before cell inoculation. The xenograft model was established by implantation of […] of ZR-75-1 tumor cell suspension (5×10^6 cells/mouse, with 50% Matrigel) subcutaneously into the right subaxillary of female BALB/c nude mice aged 6-8 weeks. When the average tumor volume reached 153.10 mm^3, the tumor-bearing mice were randomized into treatment groups. The groups were treated as follows: Group 1: vehicle, PO, QW; Group 2: Tamoxifen 10 mg/kg, PO, QD; Group 3: Compound I-11 50 mg/kg, PO, QW.
Cell culture: The ZR-75-1 (breast, ductal carcinoma) cell was purchased from (ATCC® CRL-1500™). The base medium for this cell line ATCC-formulated RPMI-1640 Medium. To make the complete growth medium, the base medium was supplemented with 10% heat inactivated FBS and 1% PS, maintained at 37° C. in an atmosphere containing 5% CO2 in air. The tumor cells were routinely subcultured at a ratio of 1:1.5 to 1:3 every 3-6 days. Cell concentration at harvest time was 5.39×10^7 cells/mL and cell viability was 94.3% before inoculation.
Tumor inoculation: BALB/c nude mice were used in this study. Each mouse was inoculated with estrogen tablets 48 hours before cell inoculation (0.3 mg/pellet, 60 days to release). […]

CC/C(=C(\c1ccccc1)c1ccc(OCCN(C)C)cc1)c1ccccc1 [Tamoxifen, reference compound]
tumor size growth: reduced tumor size growth

From patent US20240208961A1, “EIF4E INHIBITORS AND USES THEREOF” (PIC Therapeutics, Inc., priority 2022, published 2024)
